# Experimental data reported in patent US12214076B2, “Drug delivery vehicles for atherosclerosis nanomedicine” (Northwestern University, priority 2019, dated 2025).
# Peptide text beside a SMILES is read from it.
# Legend:
# [1] = system: J774.2 murine macrophages; assay type: cell-based, mouse
# Description: To measure cell metabolic activity, thiazolyl blue tetrazolium bromide (MTT, Sigma-Aldrich) was added to cells at 0.4 mg/mL in complete medium for 4 hours at 37° C. The plates were then aspirated and 100 µL of DMSO added for 10-15 minutes at room temperature on a plate shaker at low speed setting. The plates were run on an Epoch plate reader using absorbance at 560 nm corrected for background at 670 nm. Flow cytometry analysis for iNOS expression followed the methods described above.
# [2] = Dialysis LXR agonist release study; assay type: physicochemical; conditions: non-encapsulated LXR agonist, PBS, within the first hour
# Description: LXR-40% ApoA1 PA (1 mM with respect to PA) was dissolved in PBS. […] To each dialysis cup 0.1 mL of sample was added with one cup used for each time-point to be measured. All samples were dialyzed against 4 mL of PBS at 37° C. The total contents of one dialysis cup were isolated and kept at 4° C. until measurement at each time point. […] For LC-MS, a 5 to 95% acetonitrile (0.1% formic acid) gradient was run over 30 min with mobile phase containing 0.1% NH40H. A total ion chromatogram was obtained in MS mode and integrated using Mass Hunter Agilent software. The peak area corresponding to [M-H]− for GW3965 was recorded for each sample in negative ion mode and normalized according to the volume of sample present. Percent encapsulation was determined as follows:
# [formula] where NPA is the normalized peak area corresponding to LXR agonist (normalized for solution volume).
# J774.2 mouse macrophages = assay: In Vitro Cholesterol Efflux Assay (Example 1); assay type: cell-based; conditions: two- and threefold higher concentrations of LXR
# [3] = Solubility of LXR agonist without PA; assay type: physicochemical; conditions: deionized water or PBS
# [4] = Treatment study serum chemistry (toxicology analysis); assay type: in vivo, mouse; conditions: for Alanine Aminotransferase (ALT) / Alkaline phosphatase / Aspartate Aminotransferase (AST) / Bicarbonate and CO2 / Bilirubin - Conjugated / Bilirubin - Unconjugated / Blood Urea Nitrogen / Cholesterol / Creatine / Creatine Kinase / Globulin / Glucose / Potassium / Sodium / Total Bilirubin / Total Protein: group median, end of 8-week treatment
# Description: (§1) Blood samples were collected at the end of the treatment study for toxicology analysis. Mice were euthanized three days after their 16th treatment.
# (§2) Tissue processing and imaging: Mice were sacrificed and euthanized under inhaled isoflurane anesthesia by diaphragm disruption and exsanguination. Phlebotomy was performed through direct right ventricular cardiac puncture using a 1 mL syringe and 25 G needle. Perfusion was performed through left ventricular cardiac puncture with 10 mL PBS and 10 mL 10% sucrose solution. The lungs, liver, spleen, kidney, aortic root, aortic arch, and descending aorta were harvested and stored in 10% sucrose for 20 minutes. Organs and vessels were then flash-frozen in Optimal Cutting Temperature embedding medium 4583 (Tissue-Tek®) with liquid nitrogen. Frozen specimens were stored at −80° C. and cryosectioned at […]. Confocal microscopy was performed on a Nikon AIR microscope. Two sets of images were acquired with a 10× Plan Fluor NA 0.3 objective. PAs were identified through quantification of the Alexa Fluor® 546 conjugated dye with 561 nm excitation and a 600/50 nm emission filter.
# (§3) Statistics: The effect of treatments and sex on atherosclerosis progression in mice was analyzed using one- or two-factor analysis of variance (ANOVA) followed by a post-hoc student's t-test. The toxicological effects of treatments were also analyzed using two-factor ANOVA and a post-hoc student's t-test. Toxicological effects of treatments on liver proteins AST, ALT, and ALP were further analyzed using ordinal logistic regression models of likelihood ratio tests, followed by a post-hoc Wald test
# LDLR KO mice = assay: Atherosclerosis treatment study; assay type: in vivo, mouse; conditions: both sexes
# Description: Mouse model of atherosclerosis: To study atherosclerosis, the LDLR KO mouse was used. LDLR KO mice are fed a high fat “western” diet (Teklad TD.88137) starting at 4 weeks of age. This diet consists of 20% fat, 0.2% cholesterol, and 34% high sucrose. LDLR KO mice fed this diet typically develop severe hypercholesterolemia (>800 mg/dL) and hypertriglyceridemia (>300 mg/dL) after only 2 weeks. By 12 weeks on the high fat diet, atherosclerotic lesions are detected in the aortic root and aortic arch on cryosections stained with Oil Red O (Sigma). Atherosclerosis was quantified in the aortic root as a percentage of the aortic root by taking the atherosclerotic area divided by the total aortic root area. Measurements were made with ImageJ software. All protocols for the animal model and procedures in this manuscript were approved by Northwestern University's Institutional Animal Care and Use Committee.
# as §1, §2
# Images were acquired with spectral detection and spectrally unmixed to accurately separate green autofluorescence from the red Alexa Fluor® 546 signal. Brightfield and fluorescent microscopy were performed using a Zeiss Axio Imager.A2 microscope with AxioVision software (release 4.8.2, 06-2010). All confocal and fluorescent sections were mounted with ProGold Diamond mounting media (Sigma). Slides were stained with Oil Red O to image and quantify atherosclerosis under brightfield microscopy. The elastic laminae were identified using the green fluorescent protein (GFP) filter with an exposure time of 3500 ms under 5× magnification. Nanofibers were identified in the aortic root by presence of Alexa Fluor® 546 on the Cy3 filter under 5-10× magnification, and in the internal organs under 20× magnification. Fluorescent pixel quantification in the aortic root and within organs was performed with ImageJ software.
# as §3
# human recombinant MMP2 = molecular target: T1, human recombinant MMP2 (Homo sapiens, UniProt P08253); assay: MMP-Ac2-26 PA cleavage assay; assay type: biochemical; conditions: 40 nM MMP2, 24 hours, 37° C.
# T1 construct: purchased R&D systems
# T1 sequence (P08253 110-660): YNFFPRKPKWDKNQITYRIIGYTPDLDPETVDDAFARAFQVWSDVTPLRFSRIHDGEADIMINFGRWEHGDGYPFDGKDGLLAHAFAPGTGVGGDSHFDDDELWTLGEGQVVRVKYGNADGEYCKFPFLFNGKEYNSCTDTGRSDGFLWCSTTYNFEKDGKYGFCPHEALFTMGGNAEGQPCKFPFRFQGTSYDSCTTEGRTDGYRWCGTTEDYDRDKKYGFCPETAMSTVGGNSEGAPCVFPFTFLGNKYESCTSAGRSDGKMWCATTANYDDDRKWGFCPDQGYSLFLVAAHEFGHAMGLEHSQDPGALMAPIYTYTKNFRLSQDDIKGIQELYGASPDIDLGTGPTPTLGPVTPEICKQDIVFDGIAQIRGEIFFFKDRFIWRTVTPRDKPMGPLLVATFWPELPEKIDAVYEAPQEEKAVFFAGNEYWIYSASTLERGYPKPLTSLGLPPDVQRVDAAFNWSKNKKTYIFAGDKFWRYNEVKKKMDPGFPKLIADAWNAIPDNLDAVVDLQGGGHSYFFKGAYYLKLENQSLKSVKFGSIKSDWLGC
# Description: ROS-Ac2-26 and MMP-Ac2-26 PA cleavage assays: To examine ROS-mediated cleavage, 3-morpholinosydnonimine hydrochloride (SIN-1, Sigma-Aldrich or Abcam) was used. ROS-Ac2-26 PAs were reconstituted to 0.5 mM in phosphate buffer and treated with 100 μM SIN-1 for 24 hours at 37° C. For MMP2/9-mediated cleavage, human recombinant MMP2 (R&D systems, carrier-free) was used, activated with freshly prepared 1 mMp-aminophenylmercuric acetate (APMA, Sigma-Aldrich) for one hour at 37° C. The APMA disrupts the cysteine-zinc bond in MMP2 responsible for enzyme latency by liberation of the sulfhydryl group. 10% MMP-Ac2-26 PA co-assemblies were prepared at 0.5 mM in a cleavage buffer containing 50 mM tricine, 50 mM NaCl, 50 μM ZnCl2, and 10 mM CaCl2) at pH 7.4, and treated with 40 nM human recombinant MMP2 for 24 hours at 37° C. At the end of each time point, the samples were stored at −20° C., effectively stopping the cleavage reactions. Samples were analyzed at room temperature, 0.04-0.3 mg/mL with 0.1% NH4OH using a ThermoFisher Q Exactive HIF-X (ThermoFisher, Bremen, Germany) mass spectrometer coupled with a Waters Acquity H-class liquid chromatograph system. […] All measurements were recorded at a resolution setting of 120,000. […] Injection volume for all samples was […]. Data was analyzed on Xcalibur (ThermoFisher, Breman, Germany).
compound,measurement,setting,value
CC[C@H](C)[C@H](NC(=O)[C@H](Cc1ccccc1)NC(=O)[C@H](Cc1c[nH]c2ccccc12)NC(=O)[C@H](C)NC(=O)[C@H](CCC(N)=O)NC(=O)[C@H](CCCCN)NC(=O)[C@H](CC(C)C)NC(=O)[C@H](Cc1ccccc1)NC(=O)[C@H](CCC(=O)O)NC(=O)[C@H](CO)NC(=O)[C@@H](NC(=O)[C@H](CCSC)NC(=O)[C@H](C)NC(C)=O)C(C)C)C(=O)N[C@@H](CCC(=O)O)C(=O)N[C@@H](CC(N)=O)C(=O)N[C@@H](CCC(=O)O)C(=O)N[C@@H](CCC(=O)O)C(=O)N[C@@H](CCC(N)=O)C(=O)N[C@@H](CCC(=O)O)C(=O)N[C@@H](Cc1ccc(O)cc1)C(=O)N[C@H](C(=O)N[C@@H](CCC(N)=O)C(=O)N[C@H](C(=O)N[C@H](C(=O)N[C@@H](CCCCN)C(=O)O)C(C)C)[C@@H](C)O)C(C)C [Ac2-26] (Ac-AMVSEFLKQAWFIENEEQEYVQTVK-OH; N-terminus and C-terminus assumed),cellular metabolism (MTT) in comparison to the stimulated control,[1],did not significantly affect cellular metabolism
"Cl.O=C(O)Cc1cccc(OCCCN(Cc2cccc(C(F)(F)F)c2Cl)CC(c2ccccc2)c2ccccc2)c1 [LXR, GW3965]",release across the dialysis membrane,[2],up to 85%
same,LXR effects upon macrophage efflux,J774.2 mouse macrophages,no significant increases
same,solubility,[3],insoluble
same,Alanine Aminotransferase (ALT),[4]; All mice,40 U/L
same,Alkaline phosphatase,[4]; All mice,65.5 U/L
same,Aspartate Aminotransferase (AST),[4]; All mice,135 U/L
same,Bicarbonate and CO2,[4]; All mice,12 mmol/L
same,Bilirubin - Conjugated,[4]; All mice,0.05 mg/dL
same,Bilirubin - Unconjugated,[4]; All mice,0.3 mg/dL
same,Blood Urea Nitrogen,[4]; All mice,23 mg/dL
same,Cholesterol,[4]; All mice,2000.5 mg/dL
same,Creatine,[4]; All mice,0 U/L
same,Creatine Kinase,[4]; All mice,137.5 U/L
same,Globulin,[4]; All mice,2.7 g/dL
same,Glucose,[4]; All mice,237 mg/dL
same,Potassium,[4]; All mice,5.2 mmol/L
same,Sodium,[4]; All mice,139.5 mmol/L
same,Total Bilirubin,[4]; All mice,0.4 mg/dL
same,Total Protein,[4]; All mice,5.45 g/dL
same,Alanine Aminotransferase (ALT),[4]; Females,33 U/L
same,Alkaline phosphatase,[4]; Females,73 U/L
same,Aspartate Aminotransferase (AST),[4]; Females,142 U/L
same,Bicarbonate and CO2,[4]; Females,10 mmol/L
same,Bilirubin - Conjugated,[4]; Females,0 mg/dL
same,Bilirubin - Unconjugated,[4]; Females,0.5 mg/dL
same,Blood Urea Nitrogen,[4]; Females,21.5 mg/dL
same,Cholesterol,[4]; Females,2029 mg/dL
same,Creatine,[4]; Females,0 U/L
same,Creatine Kinase,[4]; Females,136 U/L
same,Globulin,[4]; Females,2.3 g/dL
same,Glucose,[4]; Females,203 mg/dL
same,Potassium,[4]; Females,4.6 mmol/L
same,Sodium,[4]; Females,140 mmol/L
same,Total Bilirubin,[4]; Females,0.6 mg/dL
same,Total Protein,[4]; Females,5.4 g/dL
same,Alanine Aminotransferase (ALT),[4]; Males,47 U/L
same,Alkaline phosphatase,[4]; Males,41 U/L
same,Aspartate Aminotransferase (AST),[4]; Males,102 U/L
same,Bicarbonate and CO2,[4]; Males,14 mmol/L
same,Bilirubin - Conjugated,[4]; Males,0.1 mg/dL
same,Bilirubin - Unconjugated,[4]; Males,0.2 mg/dL
same,Blood Urea Nitrogen,[4]; Males,24 mg/dL
same,Cholesterol,[4]; Males,1972 mg/dL
same,Creatine,[4]; Males,0 U/L
same,Creatine Kinase,[4]; Males,138 U/L
same,Globulin,[4]; Males,2.8 g/dL
same,Glucose,[4]; Males,259 mg/dL
same,Potassium,[4]; Males,5.2 mmol/L
same,Sodium,[4]; Males,139 mmol/L
same,Total Bilirubin,[4]; Males,0.3 mg/dL
same,Total Protein,[4]; Males,5.5 g/dL
same,AST levels in comparison to the PBS control,[4]; female mice,no significant differences
same,aspartate aminotransferase (AST) in the blood in comparison to PBS,[4]; male mice,significantly elevated levels of aspartate aminotransferase (AST)
same,reversal of atherosclerosis from baseline levels,LDLR KO mice,approximately 5%
same,atherosclerosis progression in comparison to the PBS control,"LDLR KO mice; twice per week over eight weeks, percent of atherosclerosis in the aortic root",significantly decreased
C16-V2A2 (SEQ ID NO: 8)-E2-GGGPQGIWGQGK (SEQ ID NO: 1)-AMVSEFLKQAWFIENEEQEYVQTVK (SEQ ID NO: 7)-NH2 (C16-VVAAEEGGGPQGIWGQGKAMVSEFLKQAWFIENEEQEYVQTVK-NH2) [MMP-Ac2-26 PA],Ac2-26 release from PA nanofibers,human recombinant MMP2,released Ac2-26
